Measured values: patent US20160355503A1, “NITROGEN HEXACYCLE COMPOUNDS AS INHIBITORS OF p97 COMPLEX” (Cleave Biosciences, Inc., priority 2015, published 2016)

Tests used:
p97 = p97 (Homo sapiens, UniProt P55072); experiment: P97 ATPase biochemical assay (ADP Glo); conditions: 20 nM p97, 20 μM ATP, 37° C. for 15 minutes
Experimental: The ATPase assay is performed according the following protocol: Purified enzyme (20 nM p97), substrate (20 μM ATP) and a dose titration of compounds are mixed in buffer (50 mM TRIS pH 7.5, 20 mM MgCl2, 0.02% TX-100, 1 mM DTT, 0.2% (v/v) glycerol) and incubated at 37° C. for 15 minutes. The reaction is terminated and the level of product generated is measured using the ADP Glo Assay Kit (Promega, Madison Wis.). Plotting product generated versus compound concentration and using a four-parameter fit model generates an IC50 value for each compounds.
The p97 assay is an initial screening assay used to determine inhibitory activity of the triazine compounds of the invention against the p97 complex. As discussed above, inhibition of activity of the p97 proteosome complex can enable apoptosis and cause elimination of neoplastic cells (cancer cells). The method follows that of Christianson in Nat. Cell Biol., (2011) 14:93.
Assay Buffer is a mixture of 50 mM TRIS pH 7.5, 20 mM MgCl2, 0.02% TX-100, 1 mM DTT and 0.2% (v/v) Glycerol. The well plate is Platetype: Corning 3674, 384w plate. The identification kit is an ADP glo kit (Promega): stop buffer, detection reagent.
Serial dilute compound in DMSO in a 1:3.33-fold 10 point serial dilution.
in each well of 384w plate add the following reagents:
0.5 μL compound serial diluted in DMSO (Final Conc. 10%)
2 μL ATP (Final Conc.=20 uM, diluted in assay buffer)
2.5 μL p97 (Final Conc.=20 nM, diluted in assay buffer)
Incubate at 37 deg C. for 15 min.
Add 5 μL of stop buffer, incubate at RT for 40 min.
Add 10 μL of detection reagent, incubate at RT for 30 min.
Read luminescence on Envision plate reader.
Upon obtaining the data from the luminescence reading, the data may be analyzed as follows:
Normalize luminescence data using no enzyme (full inhibition) and no compound (no inhibition) controls. Plot normalized luminescence data against log-transformed concentration values and fit to a sigmoidal curve to determine IC50 values (done in Collaborative Drug Discovery software).

A549 cells = experiment: Cultured cancer cell viability assay (cell titer glo, CTG); format: cell-based; conditions: Homo sapiens, 72 hr incubation
From the text: Anti-tumor effects are monitored in cultured cancer cells after several days of compound treatment. The cell titer glo assay (Promega) measures the amount of ATP present as a proxy for cellular viability. Cellular counting is done using high-content microscopy followed by image analysis. A hanging drop 3D-culture system (3D Biomatrix) is used followed by cell titer glo to measure growth in a tumor-like environment.
(§1) The cellular assay provides information about the anti-neoplastic activity of the compounds of the invention. The compounds are tested against cultured cancer cells to determine whether or not the compounds of the invention are capable of intersecting with cancer cells to minimize or eliminate such cells. The assay involves establishing colonies of such cells and then treating them with the test compound under specified conditions and analysis regima to determine results.
(§2) Cell Plating: • Seed cells ˜16 hrs prior to compound treatment • Plate 25 μL of A549 cells in every well of 384-well plate using multidrop. • Two (2) black plates for IF at 2500 cells/well • Let plate sit at room temp for 10-15 minutes prior to putting in incubator to allow cells to stick in middle of plate. • One (1) white plate for viability at 500 cells/well.
(§3) Treat Cells: • Serial dilute compounds with a 10 point 2-fold serial dilution in DMSO to make 250× stock compound solution • Dilute compounds 1:125 in cell culture media to make a 2× solution • Add 25 μl of dilution compounds to cell plates in well duplicates • Put cells back in incubator (6 hr incubation for black plates, 72 hr incubation for white plates).
Viability Assay: • Thaw an aliquot of frozen cell titer glo (Promega G7572) at room temperature. • Add 45 mL of NaCl/PBS solution to 5 ml of cell titer glo (10×). • Remove white plates from incubator, leave at room temp for 30 minutes. • Add 25 μl of diluted cell titer glo to each well. • Shake plate for >1 minute. • Incubate plate for >5 minutes to stabilize luminescence. • Luminescence is stable for up to 3 hours. • Read luminescence on plate reader

K48-Ub = K48-Ub immunofluorescence assay in A549 cells; format: cell-based; conditions: Homo sapiens, 6 hr incubation
Experimental: Image-analysis is used to generate quantitative data from these assays that can be fit to a four-parameter sigmoid curve to derive IC50 values. Substrates of the ubiquitin-proteasome system, such as p53, are monitored after tumor cell lines are incubated with compounds for several hours. Accumulation of these proteins indicates an inhibition of proteasome-mediated degradation. Accumulation of lysine-48 chain linkage of poly-ubiquitin is also monitored by immunofluorescence as an indicator of ubiquitin-proteasome system inhibition. Both LC3 and SQSTM1 are mediators of autophagy. The localization and amounts of these proteins are monitored by immunofluorescence and report on the activity and inhibition of autophagy in response to p97 inhibition.
as §1, §2, §3
Fix/Stain Black Plates: • Incubate cells in black plates with compound at 37 deg C. for 6 hrs. • add 15 μL of 16% Paraformaldehyde (PFA) directly into media of each well, • incubate at room temp for 5 min, flick plate and wash in 50 μL of PBS • block in 50 μL of Blocking Buffer for 30 minutes (can go up to several hours) • Blocking buffer: 1×PBS, 1% BSA, 0.3% Triton-X100, Hoechst (1:10,000) • incubate in 25 μL of primary antibody in blocking buffer at 4 deg C. over night
Secondary Antibodies: • AlexaFluor488 Goat anti-Rabbit 1:2,000 (Life Tech A11008) • AlexaFluor555 Goat anti-Mouse 1:2,000 (Life Tech A21422) […]
Data Analysis: • Nuclear counts and cellular intensities of each markers are measured using Hoechst as a nuclear marker with an automated image analysis protocol using Matlab software (Math Works)

Chain of p97 (P55072 whole entry): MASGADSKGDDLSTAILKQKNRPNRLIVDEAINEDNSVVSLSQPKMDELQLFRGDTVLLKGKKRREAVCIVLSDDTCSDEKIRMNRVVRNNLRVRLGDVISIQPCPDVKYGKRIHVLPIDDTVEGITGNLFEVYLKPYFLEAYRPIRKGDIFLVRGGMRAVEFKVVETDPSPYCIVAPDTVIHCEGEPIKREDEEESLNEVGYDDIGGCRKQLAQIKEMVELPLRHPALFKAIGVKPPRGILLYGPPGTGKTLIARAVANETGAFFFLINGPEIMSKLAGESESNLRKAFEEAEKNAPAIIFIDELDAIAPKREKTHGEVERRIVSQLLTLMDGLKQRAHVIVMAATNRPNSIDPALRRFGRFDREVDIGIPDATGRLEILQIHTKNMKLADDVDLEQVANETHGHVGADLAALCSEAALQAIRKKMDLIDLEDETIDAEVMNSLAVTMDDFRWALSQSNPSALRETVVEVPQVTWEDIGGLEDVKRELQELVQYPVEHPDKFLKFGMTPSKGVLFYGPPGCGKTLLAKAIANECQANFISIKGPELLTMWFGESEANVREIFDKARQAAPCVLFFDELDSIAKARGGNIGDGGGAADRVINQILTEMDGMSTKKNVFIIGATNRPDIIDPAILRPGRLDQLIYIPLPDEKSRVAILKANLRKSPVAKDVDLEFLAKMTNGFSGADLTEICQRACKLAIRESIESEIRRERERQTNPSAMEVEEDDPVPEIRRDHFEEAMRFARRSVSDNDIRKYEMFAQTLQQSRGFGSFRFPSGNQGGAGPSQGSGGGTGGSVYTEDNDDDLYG

Row | SMILES | IC50 (p97) [nM] | IC50 (A549 cells) [nM] | IC50 (K48-Ub) [nM] | Peff A B, Range (Caco-2 cells; pH 7.4 Caco-2, A to B) | Peff B A, Range (Caco-2 cells; pH 7.4 Caco-2, B to A)
1 | Cc1nnc(-n2c(CN)cc3c(C(N)=O)cccc32)nc1NCc1ccccc1 [2-(aminomethyl)-1-(5-(benzylamino)-6-methyl-1,2,4-triazin-3-yl)-1H-indole-4-carboxamide] | < 10000 | – | – | – | –
2 | Cc1nc(NCc2ccccc2)nc(-n2c(C)cc3c(C(N)=O)cccc32)n1 [1-(4-(benzylamino)-6-methyl-1,3,5-triazin-2-yl)-2-methyl-1H-indole-4-carboxamide] | < 100 | < 10000 | < 3000 | – | –
3 | COc1nc2c(C#N)cccc2n1-c1nnc(C)c(NCc2ccccc2)n1 [1-(5-(benzylamino)-6-methyl-1,2,4-triazin-3-yl)-2-methoxy-1H-benzo[d]imidazole-4-carbonitrile] | < 10000 | – | – | – | –
4 | Cc1nnc(-n2c(C)cc3c(C(N)=O)cccc32)nc1NCc1ccccc1 [1-(5-(benzylamino)-6-methyl-1,2,4-triazin-3-yl)-2-methyl-1H-indole-4-carboxamide] | < 30 | < 3000 | < 3000 | – | –
5 | Cc1nnc(-n2c(C)cc3c(C(N)=O)cccc32)nc1NCc1cccc(F)c1 [1-(5-((3-fluorobenzyl)amino)-6-methyl-1,2,4-triazin-3-yl)-2-methyl-1H-indole-4-carboxamide] | < 1000 | < 10000 | < 3000 | – | –
6 | CC(C)NCC(O)COc1cccc2ccccc12 (stereo not shown) [Propranolol] | – | – | – | 18.50-36.80 ×E−6 cm/sec | 16.30-31.40 ×E−6 cm/sec
7 | CCc1nnc(-n2c(C)cc3c(C(N)=O)cccc32)nc1NCc1ccccc1 [1-(5-(benzylamino)-6-ethyl-1,2,4-triazin-3-yl)-2-methyl-1H-indole-4-carboxamide] | < 30 | < 1000 | < 1000 | – | –
